What was measured:
[1] = system: Tobacco Budworm (Heliothis virescens); experiment: Tobacco budworm feeding bioassay (egg and larval stage, 96-well agar diet plate, percent mortality); assay type: in vivo; conditions: average of three replicates
Experimental: (§1) Tobacco Budworm (Heliothis virescens) and Beet Armyworm (Spodoptera littoralis) Feeding Bioassay
(§2) To compare insecticidal activities of the test compounds against egg and larval stage Heliothis virescens or Spodoptera littoralis, 50 ul of a 1:1 acetone:water solution was added to each sample and then solublized for one-hour using an orbital shaker. Each of the resulting sample solutions (50, 120, or 250 ppm) was then applied to a well in a 96-well microtiter plate, each well containing an artificial agar-based lepidoptera diet (modified Shorey diet, Southland Products, Lake Village, Ariz.). Each sample was run in triplicate. Plates were allowed to dry for about 4 hours, covered and held for infestation the next day. Each well of the treated plate was infested with 3-5 eggs (0-2 days old) of either H. virescens or S. littoralis. Plates were then covered with cotton batting and sealed with microplate lid. The treated plates were held inverted in an incubator (80+% rh) for six to seven days. Following the incubation period, the plates were graded for percent mortality using a binocular microscope. Data for each sample was reported as the average percent mortality of the three replicates.

[2] = system: Beet Armyworm (Spodoptera littoralis); experiment: Beet armyworm feeding bioassay (egg and larval stage, 96-well agar diet plate, percent mortality); assay type: in vivo; conditions: average of three replicates
Experimental: as §1, §2

Molecule	Tobacco Budworm Diet (6 day) Mortality (%) ([1]; Rate 50 ppm)	Beet Armyworm Diet (6 day) Mortality (%) ([2]; Rate 50 ppm)	Tobacco Budworm Diet (6 day) Mortality (%) ([1]; Rate 120 ppm)	Beet Armyworm Diet (6 day) Mortality (%) ([2]; Rate 120 ppm)
CCC=CC1CCCC(OC2CCC(N(C)C)C(C)O2)C(C)C(=O)C2=CC3C(C=CC4CC(OC5OC(C)C(OC)C(OC)C5OC)CC43)C2CC(=O)O1 (stereo not shown) [Compound 1, for-rham-I, reference compound]	100	100		
CCC=CC1CCCC(OC2CCC(N(C)C)C(C)O2)C(C)C(=O)C2=CC3C(C=CC4CC(OC5OC(C)C(OC)C(OC)C5O)CC43)C2CC(=O)O1 (stereo not shown) [Compound 5, for-(2′-O-desmethylrham)-I]	100	100		
CCC=CC1CCCC(OC2CCC(N(C)C)C(C)O2)C(C)C(=O)C2=CC3C(C=CC4CC(OC5OC(C)C(OC)C(O)C5OC)CC43)C2CC(=O)O1 (stereo not shown) [Compound 6, for-(3′-O-desmethylrham)-I]	100	100		
CCC=CC1CCCC(OC2CCC(N(C)C)C(C)O2)C(C)C(=O)C2=CC3C(C=CC4CC(OC5OC(C)C(O)C(OC)C5OC)CC43)C2CC(=O)O1 (stereo not shown) [Compound 32, for-(4′-O-desmethyl-rham)-I]	100	100		
CCC=CC1CCCC(OC2CCC(N(C)C)C(C)O2)C(C)C(=O)C2=CC3C(C=CC4CC(OC5OC(C)C(O)C(O)C5O)CC43)C2CC(=O)O1 (stereo not shown) [Compound 33, for-(2′,3′,4′-tri-O-desmethyl-rham)-I]	100	100		
CCC=CC1CCCC(OC2CCC(N(C)C)C(C)O2)C(C)C(=O)C2=CC3C(C=CC4C(O)C(OC5OC(C)C(O)C(OC)C5OC)CC43)C2CC(=O)O1 (stereo not shown) [Compound 34, for-(4′-O-desmethyl-rham)-III]	100	100		
CCC=CC1CCCC(OC2CCC(N(C)C)C(C)O2)C(C)C(=O)C2=CC3C(C=CC4CC(OC5OC(C)C(O)C(O)C5OC)CC43)C2CC(=O)O1 (stereo not shown) [Compound 37]	100	100		
CCC=CC1CCCC(OC2CCC(N(C)C)C(C)O2)C(C)C(=O)C2=CC3C(C=CC4C(O)C(OC5OC(C)C(O)C(O)C5OC)CC43)C2CC(=O)O1 (stereo not shown) [Compound 40, for-(3′,4′-di-O-desmethyl-rham) III]	100	93		
CCC=CC1CCCC(OC2CCC(N(C)C)C(C)O2)C(C)C(=O)C2=CC3C(C=CC4C(O)C(OC5OC(C)C(OC)C(O)C5OC)CC43)C2CC(=O)O1 (stereo not shown) [Compound 41, for-(3′-O-desmethyl-rham) III]	100	100		
CC=CC1CCCC(OC2CCC(N(C)C)C(C)O2)C(C)C(=O)C2=CC3C(C=CC4CC(OC5OC(C)C(O)C(O)C5OC)CC43)C2CC(=O)O1 (stereo not shown) [Compound 43, 24-desmethyl-for-(3′,4′-di-O-desmethyl-rham)-I]	33	80		
CCC=CC1CCCC(OC2CCC(NC)C(C)O2)C(C)C(=O)C2=CC3C(C=CC4CC(OC5OC(C)C(OC)C(O)C5OC)CC43)C2CC(=O)O1 (stereo not shown) [Compound 137, (4″-N-desmethyl-for)-(3′-O-desmethyl-rham)-I]			100	100
COC1C(C)OC(OC2CC3C=CC4C5CC(=O)OC(C=CC(C)O)CCCC(OC6CCC(N(C)C)C(C)O6)C(C)C(=O)C5=CC4C3C2)C(OC)C1O (stereo not shown) [Compound 141, 24-hydroxy-for-(3′-O-desmethyl-rham)-I]			100	67
for-(3′,4′-di-O-desmethyl-rham)-II [Compound 44]	100	100		
for-(3′,4′-di-O-desmethyl-rham)-IV [Compound 163]			100	100
